Measurements as given in patent US7150974B1, “Parathyroid hormone receptor binding method” (The General Hospital Corporation, priority 1991, dated 2006).

Biological target: T1, opossum kidney PTH/PTHrP receptor clone, OK-H (Didelphis virginiana, UniProt P25107, I132F/S86P)
T1 construct: expressed in transfected cells; host or cells: COS cells, transient, plasmid OK-H (pcDNA I)
Experiment: Intracellular free calcium, COS cells expressing OK-H
Assay type: cell-based
Conditions: FIG. 10, smaller extent, or not at all, compared with OK-O or R15B
Procedure: Measurements of intracellular calcium levels in cells transfected with PTH/PTHrP receptor cDNAs were performed using Fura-2 AM (acetomethoxy ester of Fura-2, Molecular Probes Inc., Eugene, Oreg.) loaded cells. Details of the methodology are:
Coverslips plated with COS cells were incubated in Fura-2 AM loading buffer containing, in mM: HEPES (N-[2-Hydroxyethyl]piperazine-N′-[2-ethanesulfonic acid]), 20; CaCl2, 1; KCl 5; NaCl, 145; MgSO4, 0.5; NaHCO3, 25; K2HPO4, 1.4; glucose, 10; and Fura-2 AM 91-(2-5′-carboxyoxazol-2′-yl)-6-aminobenzofuran-5oxy-(2′-amino-5′-methylphenoxy)ethane-N,N,N′,N′-tetraaecetic acid acetomethoxy ester), 0.5; at 37° C. at pH7.4, aerated with 95% air and 5% CO2 for 45 minutes. Cells loaded with Fura-2 AM were then washed with a modified Krebs-Heinseleit (KH) buffer containing, in mM: HEPES, 20; CaCl2, 1; KCl, 5; NaCl, 145; MgSO4, 0.5; Na2HPO4, 1; glucose, 5; pH7.4. To check that cleavage of the ester occurred, the excitation spectra after different times of Fura-2 AM incubation were measured. […]
To measure fluorescence of individual cells, the cover slips were placed in a microscope tissue chamber (Biophysica Technologies, Inc., MD). […] Fura-2 fluorescence was excited with a 75 watt Xenon arc lamp placed at the focal point of a condenser (Photon Technologies International (PTI) Inc., NJ). […]

T1 sequence (P25107 other isoform, or with tags, fused parts or gaps S86P/I132F): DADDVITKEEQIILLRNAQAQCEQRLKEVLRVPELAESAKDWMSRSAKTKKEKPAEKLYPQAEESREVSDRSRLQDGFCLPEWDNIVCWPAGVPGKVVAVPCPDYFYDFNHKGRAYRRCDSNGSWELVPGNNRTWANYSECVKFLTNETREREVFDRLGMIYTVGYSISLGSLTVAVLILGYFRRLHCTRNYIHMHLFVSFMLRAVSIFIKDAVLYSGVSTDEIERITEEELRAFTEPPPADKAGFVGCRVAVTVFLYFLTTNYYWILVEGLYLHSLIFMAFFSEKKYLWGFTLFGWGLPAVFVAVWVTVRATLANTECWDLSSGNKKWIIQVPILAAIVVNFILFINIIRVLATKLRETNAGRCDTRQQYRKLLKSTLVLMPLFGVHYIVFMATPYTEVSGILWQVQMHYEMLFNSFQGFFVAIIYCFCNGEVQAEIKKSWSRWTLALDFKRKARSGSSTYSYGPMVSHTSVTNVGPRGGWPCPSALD

For [Nle^8,18, Tyr^34]bPTH(1-34)amide, the “increase in concentration of intracellular free calcium (mean)” value was 39 nM.
